Measurements published in ChEMBL document CHEMBL1201862, “PubChem BioAssay data set” (2004).
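Results reflect a 48-hour exposure of cells in 96-well plates to compound at five concentrations. Here, GI50 denotes the concentration required for 50% inhibition of growth.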 Active and inactive are the calls of the source. No stated cut-off is given here; in the data, active = GI50 up to about 1.1 µM and inactive = higher.

Assays:
Experiment in all cases: inhibition of tumour cell growth, NCI panel, 48 h
M14 = test system: M14
A498 = test system: A498
SK-MEL-28 = test system: SK-MEL-28
SF-539 = test system: SF-539
IGROV-1 = test system: IGROV-1
U-251 = test system: U-251
Malme-3M = test system: Malme-3M
SK-OV-3 = test system: SK-OV-3
NCI-H522 = test system: NCI-H522
ACHN = test system: ACHN
CCRF-CEM = test system: CCRF-CEM
SW-620 = test system: SW-620
SNB-19 = test system: SNB-19
SK-MEL-5 = test system: SK-MEL-5
SN12C = test system: SN12C
EKVX = test system: EKVX
K562 = test system: K562

Measured: GI50

CCOC(=O)C1=C(Nc2ccc(Br)cc2)OCC1=O
inactive: M14 > 100 µM | A498 > 100 µM | SK-MEL-28 > 100 µM | SF-539 > 100 µM | IGROV-1 > 100 µM | U-251 > 100 µM | Malme-3M > 100 µM | SK-OV-3 > 100 µM | NCI-H522 > 100 µM | ACHN > 100 µM | CCRF-CEM > 100 µM | SW-620 > 100 µM | SNB-19 > 100 µM | SK-MEL-5 > 100 µM | SN12C > 100 µM | EKVX > 100 µM

Oc1ccc2c3c1OC1C(=NN=C4CCC5(O)C6Cc7ccc(O)c8c7C5(CCN6CC5CC5)C4O8)CCC4(O)C(C2)N(CC2CC2)CCC314 (centres undefined)
inactive: M14 18.3 µM | A498 > 42.8 µM | SK-MEL-28 21.9 µM | SF-539 27.1 µM | IGROV-1 > 100 µM | U-251 17.7 µM | Malme-3M 19.8 µM | SK-OV-3 > 51.3 µM | NCI-H522 21.4 µM | ACHN > 100 µM | CCRF-CEM 22.9 µM | SW-620 20.8 µM | SNB-19 52.7 µM | SK-MEL-5 19 µM | SN12C > 41.3 µM | K562 17.2 µM | EKVX 32.4 µM

COc1ccc(OC)c(NC(=O)CCC/C(CC(=O)c2ccc(O)c(OC)c2)=N\Nc2ccc([N+](=O)[O-])cc2)c1
inactive: M14 > 100 µM | A498 > 100 µM | SF-539 57.7 µM | IGROV-1 > 100 µM | U-251 32.1 µM | Malme-3M > 100 µM | SK-OV-3 39 µM | NCI-H522 45.9 µM | ACHN 80.4 µM | CCRF-CEM 68.2 µM | SW-620 > 100 µM | SNB-19 26.6 µM | SK-MEL-5 > 100 µM | SN12C > 100 µM | K562 30.1 µM | EKVX 59 µM

NC1=NN(c2ccccc2)C(=O)C1C(=O)C(=O)Nc1nccs1 (centres undefined)
inactive: M14 > 100 µM | A498 > 100 µM | SK-MEL-28 > 100 µM | SF-539 > 100 µM | IGROV-1 > 100 µM | U-251 > 100 µM | Malme-3M > 100 µM | SK-OV-3 > 100 µM | NCI-H522 > 100 µM | ACHN > 100 µM | CCRF-CEM > 100 µM | SW-620 > 100 µM | SNB-19 > 100 µM | SK-MEL-5 > 100 µM | SN12C > 100 µM | K562 > 100 µM | EKVX > 100 µM

O=C1O/C(=C(\Br)c2cccc3ccccc23)c2ccccc21
inactive: M14 > 44.2 µM | A498 19.1 µM | SK-MEL-28 > 35.1 µM | SF-539 48.1 µM | IGROV-1 27.9 µM | U-251 > 100 µM | Malme-3M > 46.7 µM | SK-OV-3 > 39.8 µM | NCI-H522 16 µM | ACHN 34.2 µM | CCRF-CEM 20 µM | SW-620 27 µM | SK-MEL-5 22.8 µM | SN12C 21.3 µM | K562 25.2 µM | EKVX > 42 µM

Cc1ccc2nc(NC(=O)C(=O)C(C(=O)c3ccc4ccccc4c3)C3OC(=O)c4ccccc43)sc2c1 (centres undefined)
inactive: M14 15 µM | A498 5.48 µM | SK-MEL-28 5.21 µM | SF-539 2.63 µM | IGROV-1 14.9 µM | U-251 2.81 µM | Malme-3M 10.1 µM | SK-OV-3 29.9 µM | NCI-H522 12 µM | ACHN 16.5 µM | SW-620 5.86 µM | SNB-19 6.55 µM | SK-MEL-5 10.5 µM | SN12C 13.5 µM | EKVX 17.5 µM

COc1ccc(-c2cc(=O)c3ccccc3[nH]2)c(OC)c1
inactive: M14 > 100 µM | SK-MEL-28 > 100 µM | SF-539 > 100 µM | IGROV-1 > 100 µM | U-251 > 100 µM | Malme-3M > 100 µM | SK-OV-3 > 100 µM | NCI-H522 > 100 µM | ACHN > 100 µM | CCRF-CEM > 100 µM | SW-620 > 100 µM | SNB-19 > 100 µM | SN12C > 100 µM | K562 > 100 µM | EKVX > 100 µM

CC(=O)O[C@H]1CC[C@@]2(C)C(=CC[C@@H]3C2CC[C@]2(C)Nc4[nH]ncc4CC32)C1 (some centres undefined)
inactive: M14 19.7 µM | A498 > 100 µM | SK-MEL-28 32.2 µM | SF-539 20 µM | IGROV-1 75.5 µM | U-251 15 µM | Malme-3M 25.6 µM | SK-OV-3 > 100 µM | ACHN > 100 µM | CCRF-CEM 18.2 µM | SW-620 34.8 µM | SK-MEL-5 19.1 µM | K562 20.7 µM | EKVX 29.8 µM

CC(C)(C)C1CC[C@H]2c3c([nH]c4ccc(Br)cc34)[C@H]3C(=O)N(c4ccccc4)C(=O)[C@H]3[C@H]2C1 (some centres undefined)
inactive: M14 22 µM | SK-MEL-28 41.1 µM | IGROV-1 > 100 µM | U-251 10.4 µM | Malme-3M 31.6 µM | SK-OV-3 21.7 µM | NCI-H522 19.4 µM | ACHN > 100 µM | CCRF-CEM 5.52 µM | SW-620 17.4 µM | SNB-19 23.6 µM | SK-MEL-5 28.1 µM | SN12C 13.5 µM | K562 11.5 µM | EKVX 92.9 µM

N#CCC(=O)N/N=C1/C(=O)NC(=O)C(=O)C1c1nc2ccccc2s1 (centres undefined)
inactive: M14 > 100 µM | A498 > 100 µM | SK-MEL-28 > 100 µM | SF-539 > 100 µM | IGROV-1 > 100 µM | U-251 > 100 µM | Malme-3M > 100 µM | SK-OV-3 > 100 µM | NCI-H522 > 100 µM | ACHN > 100 µM | CCRF-CEM > 100 µM | SW-620 > 100 µM | SNB-19 > 100 µM | SK-MEL-5 > 100 µM | SN12C > 100 µM | K562 > 100 µM | EKVX > 100 µM

Oc1nc2cc(Cl)ccc2nc1/C(=N\Nc1ccccc1)C(O)c1ccc(Cl)c(Cl)c1 (centres undefined)
inactive: M14 > 100 µM | SF-539 > 100 µM | IGROV-1 > 100 µM | U-251 > 100 µM | Malme-3M > 100 µM | SK-OV-3 > 100 µM | NCI-H522 > 100 µM | ACHN > 100 µM | CCRF-CEM > 100 µM | SW-620 > 100 µM | SNB-19 > 100 µM | SK-MEL-5 > 100 µM | SN12C 36.7 µM | K562 > 100 µM | EKVX > 100 µM

Nc1ncnc2c1sc(=S)n2-c1ccccc1
inactive: M14 > 100 µM | A498 82.8 µM | SK-MEL-28 > 100 µM | SF-539 > 100 µM | IGROV-1 > 100 µM | U-251 > 100 µM | Malme-3M > 100 µM | SK-OV-3 > 100 µM | NCI-H522 > 100 µM | ACHN > 100 µM | CCRF-CEM > 100 µM | SW-620 > 100 µM | SNB-19 > 100 µM | SK-MEL-5 > 100 µM | SN12C > 100 µM | K562 > 100 µM | EKVX > 100 µM

CCCCCCCCCCCCOP(N)(=O)OCCCCCCCCCCCC
inactive: M14 > 100 µM | SK-MEL-28 > 100 µM | SF-539 > 100 µM | IGROV-1 > 100 µM | U-251 > 100 µM | Malme-3M > 100 µM | SK-OV-3 > 100 µM | NCI-H522 > 100 µM | ACHN > 100 µM | CCRF-CEM > 100 µM | SW-620 > 100 µM | SNB-19 > 100 µM | SN12C > 100 µM | K562 > 100 µM | EKVX > 100 µM

CC1(C)C(=O)C(C)(C)C1=S
inactive: M14 > 100 µM | A498 > 100 µM | SK-MEL-28 > 100 µM | IGROV-1 > 100 µM | U-251 > 100 µM | Malme-3M > 100 µM | SK-OV-3 > 100 µM | NCI-H522 > 100 µM | ACHN > 100 µM | CCRF-CEM > 100 µM | SW-620 > 100 µM | SNB-19 > 100 µM | SK-MEL-5 > 100 µM | SN12C > 100 µM | K562 > 100 µM | EKVX > 100 µM

CCOP(=O)(C/C(O)=C1\C(=O)C(CCCNC(=O)OC(C)(C)C)N(Cc2ccc(OC)c(OC)c2)C1=O)OCC (centres undefined)
inactive: M14 > 100 µM | A498 > 100 µM | SK-MEL-28 > 100 µM | SF-539 > 100 µM | IGROV-1 > 100 µM | U-251 > 100 µM | Malme-3M > 100 µM | NCI-H522 2.59 µM | ACHN > 100 µM | CCRF-CEM > 100 µM | SW-620 > 100 µM | SNB-19 > 100 µM | SK-MEL-5 > 100 µM | SN12C > 100 µM | K562 > 100 µM | EKVX > 100 µM

COC(C)(C)[C@H](O)C(O)CC(C)[C@@H]1CCC23CC12CCC1[C@@]2(C)CCC(OC(C)=O)C(C)(C)C2CC(OC2OC(COC(C)=O)C(O)C(O)C2O)[C@]13C (some centres undefined)
inactive: M14 2.77 µM | A498 8.83 µM | SK-MEL-28 4.26 µM | SF-539 2.72 µM | IGROV-1 2.56 µM | U-251 2.67 µM | Malme-3M 7.87 µM | SK-OV-3 9.4 µM | NCI-H522 1.83 µM | ACHN 3.76 µM | CCRF-CEM 2.55 µM | SW-620 5.35 µM | SNB-19 6.84 µM | SK-MEL-5 5.48 µM | SN12C 2.99 µM | K562 2.34 µM | EKVX 7.46 µM
